Patent US20050164951A1, “Inhibitors for the soluble epoxide hydrolase” (The Regents of the University of California, priority 2003, published 2005)

What follows are molecules tested against T1, mouse sEH (Mus musculus, UniProt P34914) (assay: Inhibition of recombinant mouse sEH, IC50 assay with 4-nitrophenyl-trans-2,3-epoxy-3-phenylpropyl carbonate as substrate). Settings: Table 5; 0.12 μM enzyme, 5 min preincubation, pH 7.4, 30° C.; means ± SD.
T1 construct: made in house; host or cells: baculovirus expression system
T1 sequence (P34914 1-554): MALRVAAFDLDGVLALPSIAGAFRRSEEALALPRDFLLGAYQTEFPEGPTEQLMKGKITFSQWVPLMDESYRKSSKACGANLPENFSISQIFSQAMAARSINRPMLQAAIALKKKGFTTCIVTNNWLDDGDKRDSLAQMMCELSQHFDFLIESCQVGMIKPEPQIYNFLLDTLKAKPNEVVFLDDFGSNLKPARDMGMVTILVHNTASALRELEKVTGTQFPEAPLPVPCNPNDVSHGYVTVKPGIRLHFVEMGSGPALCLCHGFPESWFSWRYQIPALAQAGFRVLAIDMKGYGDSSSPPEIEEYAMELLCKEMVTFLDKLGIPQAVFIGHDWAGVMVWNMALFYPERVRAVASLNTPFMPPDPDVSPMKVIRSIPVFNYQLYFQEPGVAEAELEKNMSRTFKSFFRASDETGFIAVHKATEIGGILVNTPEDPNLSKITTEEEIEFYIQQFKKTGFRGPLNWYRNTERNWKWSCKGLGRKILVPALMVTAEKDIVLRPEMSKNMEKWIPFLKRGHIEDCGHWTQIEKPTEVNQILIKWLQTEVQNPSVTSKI
Format: biochemical
Protocol: (§1) Assays were performed in triplicate. […] The curve was generated from at least three separate runs, each in triplicate, to obtain the standard deviation (SD) given in Table 1 thru Table 4.

IC90 | SMILES
350 ± 50 nM | CCOC(=O)CCCCCCCCCCOC(=O)CCCNC(=O)NC12CC3CC(CC(C3)C1)C2 [Compound 881]
630 ± 40 nM | CCOC(=O)CCCCCCCCCCCOC(=O)CCCNC(=O)NC12CC3CC(CC(C3)C1)C2 [Compound 882]

Same assay, conditions: Table 5; […] enzyme, 5 min preincubation, pH 7.4, 30° C.; means ± SD; read-out: Mouse sEH IC50

IC50 | SMILES
0.05 ± 0.01 µM | CCOC(=O)CCCCCCCCCCOC(=O)CCCNC(=O)NC12CC3CC(CC(C3)C1)C2 [Compound 881]
0.05 ± 0.01 µM | CCOC(=O)CCCCCCCCCCCOC(=O)CCCNC(=O)NC12CC3CC(CC(C3)C1)C2 [Compound 882]

Same assay, conditions: Table 7; established protocols; read-out: IC50 (μM) Mouse sEH

IC50 | SMILES
0.05 ± 0.01 µM | C#COCCOCCCCCNC(=O)NC12CC3CC(CC(C3)C1)C2 [Compound 913]
0.05 ± 0.01 µM | O=C(NCCCCCOCCOCCOCc1ccccc1)NC12CC3CC(CC(C3)C1)C2 [Compound 951]

Same assay, conditions: Table 8; established protocols; read-out: IC50 (μM) Mouse sEH

IC50 | SMILES
0.34 ± 0.01 µM | CCCCCOC(=O)CCCCC(=O)NC12CC3CC(CC(C3)C1)C2 [Compound 834]
0.05 ± 0.01 µM | O=C(CCCCCCOCCOCCOCc1ccccc1)NC12CC3CC(CC(C3)C1)C2 [Compound 959]

Same assay, conditions: Table 9; established protocols; read-out: IC50 (μM) Mouse sEH

IC50 | SMILES
0.05 ± 0.01 µM | CCCCCOC(=O)c1cccc(NC(=O)NC23CC4CC(CC(C4)C2)C3)c1 [Compound 859]
0.05 ± 0.01 µM | CCCCCOC(=O)c1ccc(NC(=O)NC23CC4CC(CC(C4)C2)C3)cc1 [Compound 860]
0.05 ± 0.01 µM | CCCCCOC(=O)C1CCC(NC(=O)NC23CC4CC(CC(C4)C2)C3)CC1 (centres unmarked) [Compound 863]

SMILES | IC50
CCCCCOC(=O)C1CCCC(NC(=O)NC23CC4CC(CC(C4)C2)C3)C1 (centres unmarked) [Compound 861] | 0.05 ± 0.01 µM
CCCCC(CC)OC(=O)C1CCCC(NC(=O)NC23CC4CC(CC(C4)C2)C3)C1 (centres unmarked) [Compound 904] | 0.05 ± 0.01 µM

These molecules were tested against T2, human sEH (Homo sapiens, UniProt P34913) (assay: Inhibition of recombinant human sEH, IC50 assay with 4-nitrophenyl-trans-2,3-epoxy-3-phenylpropyl carbonate as substrate). Settings: Table 5; 0.24 μM enzyme, 5 min preincubation, pH 7.4, 30° C.; means ± SD.
T2 construct: made in house; host or cells: baculovirus expression system
T2 sequence (P34913 1-555): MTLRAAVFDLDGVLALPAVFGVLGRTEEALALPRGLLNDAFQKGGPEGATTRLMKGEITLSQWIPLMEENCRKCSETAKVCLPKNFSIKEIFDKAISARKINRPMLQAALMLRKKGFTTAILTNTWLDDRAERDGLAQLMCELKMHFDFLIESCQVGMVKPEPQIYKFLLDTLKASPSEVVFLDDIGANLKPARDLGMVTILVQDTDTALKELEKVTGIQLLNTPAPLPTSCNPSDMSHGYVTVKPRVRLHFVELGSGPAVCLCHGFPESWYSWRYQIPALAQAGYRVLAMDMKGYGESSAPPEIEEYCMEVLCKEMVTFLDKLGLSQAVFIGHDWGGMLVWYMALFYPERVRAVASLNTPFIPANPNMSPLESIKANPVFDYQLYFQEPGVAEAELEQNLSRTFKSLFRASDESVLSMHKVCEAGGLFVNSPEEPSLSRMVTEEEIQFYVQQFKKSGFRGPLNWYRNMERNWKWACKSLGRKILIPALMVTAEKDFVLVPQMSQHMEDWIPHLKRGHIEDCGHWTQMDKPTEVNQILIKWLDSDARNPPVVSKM
Format: biochemical
Protocol: as §1

IC90 | SMILES
1200 ± 100 nM | CCOC(=O)CCCCCCCCCCOC(=O)CCCNC(=O)NC12CC3CC(CC(C3)C1)C2 [Compound 881]
1800 ± 200 nM | CCOC(=O)CCCCCCCCCCCOC(=O)CCCNC(=O)NC12CC3CC(CC(C3)C1)C2 [Compound 882]

Same assay, conditions: Table 5; […] enzyme, 5 min preincubation, pH 7.4, 30° C.; means ± SD; read-out: Human sEH IC50

IC50 | SMILES
0.1 ± 0.01 µM | CCOC(=O)CCCCCCCCCCOC(=O)CCCNC(=O)NC12CC3CC(CC(C3)C1)C2 [Compound 881]
0.1 ± 0.01 µM | CCOC(=O)CCCCCCCCCCCOC(=O)CCCNC(=O)NC12CC3CC(CC(C3)C1)C2 [Compound 882]

Same assay, conditions: Table 7; established protocols; read-out: IC50 (μM) Human sEH

IC50 | SMILES
0.1 ± 0.01 µM | C#COCCOCCCCCNC(=O)NC12CC3CC(CC(C3)C1)C2 [Compound 913]
0.1 ± 0.01 µM | O=C(NCCCCCOCCOCCOCc1ccccc1)NC12CC3CC(CC(C3)C1)C2 [Compound 951]

Same assay, conditions: Table 8; established protocols; read-out: IC50 (μM) Human sEH

IC50 | SMILES
2.4 ± 0.2 µM | CCCCCOC(=O)CCCCC(=O)NC12CC3CC(CC(C3)C1)C2 [Compound 834]
0.11 ± 0.02 µM | O=C(CCCCCCOCCOCCOCc1ccccc1)NC12CC3CC(CC(C3)C1)C2 [Compound 959]

Same assay, conditions: Table 9; established protocols; read-out: IC50 (μM) Human sEH

IC50 | SMILES
0.1 ± 0.01 µM | CCCCCOC(=O)c1cccc(NC(=O)NC23CC4CC(CC(C4)C2)C3)c1 [Compound 859]
0.1 ± 0.01 µM | CCCCCOC(=O)c1ccc(NC(=O)NC23CC4CC(CC(C4)C2)C3)cc1 [Compound 860]
0.12 ± 0.01 µM | CCCCCOC(=O)C1CCC(NC(=O)NC23CC4CC(CC(C4)C2)C3)CC1 (centres unmarked) [Compound 863]

Same assay, conditions: read-out: IC50 (μM) Human sEH

SMILES | IC50
CCCCCOC(=O)C1CCCC(NC(=O)NC23CC4CC(CC(C4)C2)C3)C1 (centres unmarked) [Compound 861] | 0.1 ± 0.01 µM
CCCCC(CC)OC(=O)C1CCCC(NC(=O)NC23CC4CC(CC(C4)C2)C3)C1 (centres unmarked) [Compound 904] | 0.1 ± 0.01 µM
